From the supplement of paper PMC7214452
Counter-ions that a name gives are not always drawn.

Key:
Assay in all cases: normalized area under the dose-response curve (viability relative to DMSO control) (fraction); higher = less sensitive (more viable cells)
Conditions in all cases: exposure time not given
[1] = system: OCI-MY5/Vec (cancer type: MM)
Method: (§1)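 25 myeloma and 15 non-Hodgkin lymphoma cell lines were exposed to each of 76 drugs as 7-point log dilutions (0.01 nM–10 µM) in duplicate. Viability was read with CellTiter-Glo and normalised to DMSO (0.1%) and staurosporine (10 µM) plate controls. Normalised AUC was calculated by the trapezoidal method relative to the negative control.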

[2] = system: SU-DHL6 (cancer type: DLBCL)
Method: as §1

Se-Ax (cancer type: TCL) = system: Se-Ax (cancer type: TCL)
Method: as §1

[3] = system: RPMI 8226 (cancer type: MM)
Method: as §1

[4] = system: KMS12PE (cancer type: MM)
Method: as §1

SKMM2 (cancer type: MM) = system: SKMM2 (cancer type: MM)
Method: as §1

OPM2 (cancer type: MM) = system: OPM2 (cancer type: MM)
Method: as §1

[5] = system: JeKo-1 (cancer type: Mantle)
Method: as §1

[6] = system: OCI-LY3 (cancer type: DLBCL)
Method: as §1

KMS34 (cancer type: MM) = system: KMS34 (cancer type: MM)
Method: as §1

KMS26 (cancer type: MM) = system: KMS26 (cancer type: MM)
Method: as §1

[7] = system: OCI-MY5/CRBN (cancer type: MM)
Method: as §1

AMO1 (cancer type: MM) = system: AMO1 (cancer type: MM)
Method: as §1

[8] = system: JVM2 (cancer type: Mantle)
Method: as §1

[9] = system: OCI-LY1 (cancer type: DLBCL)
Method: as §1

U266 (cancer type: MM) = system: U266 (cancer type: MM)
Method: as §1

L363 (cancer type: MM) = system: L363 (cancer type: MM)
Method: as §1

[10] = system: KMS28PE (cancer type: MM)
Method: as §1

[11] = system: Mino (cancer type: Mantle)
Method: as §1

FR4 (cancer type: MM) = system: FR4 (cancer type: MM)
Method: as §1

MM1.R (cancer type: MM) = system: MM1.R (cancer type: MM)
Method: as §1

KMS11 (cancer type: MM) = system: KMS11 (cancer type: MM)
Method: as §1

[12] = system: HuT 78 (cancer type: TCL)
Method: as §1

[13] = system: Granta-519 (cancer type: Mantle)
Method: as §1

[14] = system: SU-DHL2 (cancer type: DLBCL)
Method: as §1

[15] = system: OCI-LY19 (cancer type: DLBCL)
Method: as §1

My-La (cancer type: TCL) = system: My-La (cancer type: TCL)
Method: as §1

MM1.S (cancer type: MM) = system: MM1.S (cancer type: MM)
Method: as §1

LP1 (cancer type: MM) = system: LP1 (cancer type: MM)
Method: as §1

XG2 (cancer type: MM) = system: XG2 (cancer type: MM)
Method: as §1

EJM (cancer type: MM) = system: EJM (cancer type: MM)
Method: as §1

JJN3 (cancer type: MM) = system: JJN3 (cancer type: MM)
Method: as §1

[16] = system: SR-786 (cancer type: TCL)
Method: as §1

[17] = system: OCI-MY7 (cancer type: MM)
Method: as §1

[18] = system: SU-DHL1 (cancer type: TCL)
Method: as §1

[19] = system: OCI-MY5 (cancer type: MM)
Method: as §1

[20] = system: Karpas-299 (cancer type: TCL)
Method: as §1

[21] = system: KMS28BM (cancer type: MM)
Method: as §1

[22] = system: NCI-H929 (cancer type: MM)
Method: as §1

KMS18 (cancer type: MM) = system: KMS18 (cancer type: MM)
Method: as §1

SMILES	normalized area under the dose-response curve [1]	normalized area under the dose-response curve [2]	normalized area under the dose-response curve (Se-Ax (cancer type: TCL))	normalized area under the dose-response curve [3]	normalized area under the dose-response curve [4]	normalized area under the dose-response curve (SKMM2 (cancer type: MM))	normalized area under the dose-response curve (OPM2 (cancer type: MM))	normalized area under the dose-response curve [5]	normalized area under the dose-response curve [6]	normalized area under the dose-response curve (KMS34 (cancer type: MM))	normalized area under the dose-response curve (KMS26 (cancer type: MM))	normalized area under the dose-response curve [7]	normalized area under the dose-response curve (AMO1 (cancer type: MM))	normalized area under the dose-response curve [8]	normalized area under the dose-response curve [9]	normalized area under the dose-response curve (U266 (cancer type: MM))	normalized area under the dose-response curve (L363 (cancer type: MM))	normalized area under the dose-response curve [10]	normalized area under the dose-response curve [11]	normalized area under the dose-response curve (FR4 (cancer type: MM))	normalized area under the dose-response curve (MM1.R (cancer type: MM))	normalized area under the dose-response curve (KMS11 (cancer type: MM))	normalized area under the dose-response curve [12]	normalized area under the dose-response curve [13]	normalized area under the dose-response curve [14]	normalized area under the dose-response curve [15]	normalized area under the dose-response curve (My-La (cancer type: TCL))	normalized area under the dose-response curve (MM1.S (cancer type: MM))	normalized area under the dose-response curve (LP1 (cancer type: MM))	normalized area under the dose-response curve (XG2 (cancer type: MM))	normalized area under the dose-response curve (EJM (cancer type: MM))	normalized area under the dose-response curve (JJN3 (cancer type: MM))	normalized area under the dose-response curve [16]	normalized area under the dose-response curve [17]	normalized area under the dose-response curve [18]	normalized area under the dose-response curve [19]	normalized area under the dose-response curve [20]	normalized area under the dose-response curve [21]	normalized area under the dose-response curve [22]	normalized area under the dose-response curve (KMS18 (cancer type: MM))
CN(C)C/C=C/C(=O)Nc1cc2c(Nc3ccc(F)c(Cl)c3)ncnc2cc1O[C@H]1CCOC1 [Afatinib]	0.477	0.811	0.604	0.467	0.53	0.642	0.692	0.531	0.819	0.461	0.848	0.548	0.562	0.497	0.796	0.801	0.521	0.529	0.643	0.685	0.49	0.53	0.496	0.69	0.758	0.739	0.74	0.5	0.637	0.496	0.66	0.57	0.709	0.62	0.558	0.372	0.636	0.682	0.63	0.822
Cn1ncc(Cl)c1-c1cc(C(=O)N[C@H](CN)Cc2cccc(F)c2)sc1Cl [Afuresertib]	0.637	0.816	0.416	0.331	0.49	0.49	0.369	0.808	0.851	0.211	0.499	0.742	0.414	0.652	0.657	0.525	0.375	0.282	0.813	0.591	0.2	0.439	0.758	0.821	0.913	0.739	0.784	0.26	0.384	0.436	0.486	0.55	0.713	0.7	0.48	0.398	0.765	0.363	0.33	0.293
COc1cc(Nc2ncc3c(n2)-c2ccc(Cl)cc2C(c2c(F)cccc2OC)=NC3)ccc1C(=O)O [Alisertib]	0.809	0.946	0.73	0.927	0.94	0.967	0.957	0.716	0.878	0.684	0.887	0.85	0.7	0.706	0.794	0.859	0.872	0.918	0.622	0.916	0.85	0.772	0.826	0.709	0.964	0.853	0.851	0.85	0.851	0.69	0.889	0.919	0.802	0.92	0.761	0.881	0.816	0.913	0.94	0.833
CC(=O)OC[C@H]1O[C@@H]([S-])[C@H](OC(C)=O)[C@@H](OC(C)=O)[C@@H]1OC(C)=O.CCP(CC)CC.[Au+] [Auranofin]	0.0417	0.553	0.247		0.33				0.553			0.0579		0.157	0.372						0.05		0.239		0.611	0.344		0.09						0.07	0.139				0.08	
Nc1ncn([C@@H]2O[C@H](CO)[C@@H](O)[C@H]2O)c(=O)n1 [Azacitidine]	0.702	0.65	0.637	0.665	0.56	0.767	0.535	0.72	0.707	0.64	0.757	0.756	0.496	0.552	0.508	0.679	0.488	0.678	0.807	0.427	0.65	0.545	0.419	0.778	0.673	0.716	0.87	0.6	0.766	0.612	0.635	0.645	0.74	0.6	0.453	0.564	0.624	0.774	0.4	0.736
O=C(/C=C/c1cccc(S(=O)(=O)Nc2ccccc2)c1)NO [Belinostat]	0.25	0.582	0.215	0.564	0.4	0.712	0.674	0.229	0.343	0.274	0.366	0.262	0.301	0.385	0.223	0.394	0.473	0.384	0.249	0.428	0.36	0.445	0.178	0.531	0.4	0.38	0.506	0.21	0.628	0.473	0.247	0.53	0.215	0.44	0.218	0.201	0.0712	0.416	0.1	0.553
Cn1c(CCCC(=O)O)nc2cc(N(CCCl)CCCl)ccc21 [Bendamustine hydrochloride]	0.921	0.911	0.719	0.879	0.74	0.955	0.842	0.87	0.784	0.755	0.677	0.932	0.849	0.684	0.832	0.92	0.84	0.847	0.86	0.955	0.67	0.849	0.779	0.885	0.795	0.834	0.862	0.68	0.946	0.875	0.815	0.938	0.74	0.74	0.794	0.835	0.831	0.869	0.75	0.832
O=C1CC[C@H](N2Cc3c(OCc4ccc(CN5CCOCC5)cc4)cccc3C2=O)C(=O)N1 [Iberdomide]	0.947	0.887	0.953		0.93				0.983			0.913		0.917	0.968						0.91		0.913		0.921	0.809		0.78						0.94	0.996				0.86	
CC(C)C[C@H](NC(=O)CNC(=O)c1cc(Cl)ccc1Cl)B(O)O [Ixazomib]	0.027	0.855	0.146		0.45			0.104	0.285	0.306	0.157	0.0319		0.114	0.362				0.14		0.05		0.156	0.129	0.453	0.303	0.355	0.09	0.344	0.0819			0.355	0.12	0.186		0.403		0.1	
Cc1[nH]c(/C=C2\C(=O)Nc3ccc(F)cc32)c(C)c1C(=O)NCCN1CCCC1 [Toceranib]	0.967	0.894	0.728		0.79			0.831	0.902	0.667	0.906	0.884		0.702	1.06				0.898		0.83		0.756	0.898	0.959	0.894	0.993	0.82	0.796	0.723			0.818	0.86	0.561		0.757		0.88	
